Reference: PubChem BioAssay AID977605 (Broad Institute, 2014)
Activity calls are given as the source filed them.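 How the source made its calls: active means fitted curve reaches 40% activation below the top valid tested dose, in every test run; inconclusive means test runs disagree on the call; inactive means the rest, including effects opposite to the expected direction.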

experiment: E-selectin inducers in HUVECs, dose response, imaging, HUVEC, cherry-picked samples (AID 977605); details: HUVEC E-selectin immunostaining, at 18 µM (top of the series), percent of TNF-alpha response over vehicle;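 further: signal is the share of imaged cells scored positive for E-selectin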

Question: For C[C@@H]1CN([C@H](C)CO)C(=O)c2cccc(NC(=O)CCCCCC(=O)Nc3ccccc3N)c2O[C@H]1CN(C)Cc1ccc2c(c1)OCO2, which activation is on record?
Answer: 0.253% (inactive)

same assay, conditions: HUVEC E-selectin immunostaining, at 19.5 µM (top of the series), percent of TNF-alpha response over vehicle

Question: Which activation does the source give for COc1cccc(NC(=O)c2ccc(OC(F)(F)F)cc2)c1 here?
Answer: 0.305% (inactive)

Question: Which activation does the source give for Cc1noc(C)c1NC(=O)N(C)C[C@@H]1Oc2ccc(NC(=O)Cn3cnnn3)cc2C(=O)N([C@@H](C)CO)C[C@@H]1C here?
Answer: -0.143% (inactive)

Question: Which activation does the source give for COc1ccc(S(=O)(=O)Nc2ccc3c(c2)C(=O)N([C@H](C)CO)C[C@@H](C)[C@@H](CN(C)C(=O)Nc2cccc4ccccc24)O3)cc1 here?
Answer: 1.7% (inactive)

Question: For COc1ccc(NC(=O)Nc2ccc3c(c2)C(=O)N([C@@H](C)CO)C[C@H](C)[C@@H](CN(C)C)O3)cc1, which activation is on record?
Answer: 1.42% (inactive)

Question: Which activation does the source give for c1ccc(Nc2nnc(-c3cccnc3)s2)cc1 here?
Answer: 0.863% (inactive)

Question: Which activation does the source give for COc1ccc(CN(C)C[C@@H]2Oc3ccc(NC(=O)Nc4ccc(F)cc4)cc3CC(=O)N([C@H](C)CO)C[C@H]2C)cc1 here?
Answer: 0.445% (inactive)

Question: With C[C@@H]1CN([C@@H](C)CO)C(=O)Cc2cc(NC(=O)Cc3ccccc3)ccc2O[C@H]1CN(C)C(=O)Nc1cccc2ccccc12 as the compound, how does the activation read?
Answer: -0.158% (inactive)

Question: Which activation does the source give for CC(C)NC(=O)N(C)C[C@@H]1Oc2c(NC(=O)c3cnccn3)cccc2C(=O)N([C@@H](C)CO)C[C@@H]1C here?
Answer: -0.012% (inactive)

Question: Which activation does the source give for Cc1cc(C(=O)Nc2cccc3c2O[C@H](CN(C)C(=O)NC2CCCCC2)[C@@H](C)CN([C@@H](C)CO)C3=O)n(C)n1 here?
Answer: -0.268% (inactive)

Question: For COc1ccc(NC(=O)N(C)C[C@H]2Oc3c(NS(=O)(=O)c4cn(C)cn4)cccc3C(=O)N([C@@H](C)CO)C[C@@H]2C)cc1, which activation is on record?
Answer: 0.542% (inactive)

Question: Which activation does the source give for COc1ccc(C)cc1NC(=O)C(NCC(O)c1ccccc1)c1ccccc1 (stereo not given) here?
Answer: -0.094% (inactive)

Question: Which activation does the source give for CCOC(=O)C1(Cc2cccc(OC)c2)CCN(Cc2ccccc2)CC1 here?
Answer: 0.067% (inactive)

Question: For COc1ccc(NC(=O)Nc2cccc3c2O[C@H](CN(C)Cc2ccc(C(=O)Nc4ccccc4N)cc2)[C@H](C)CN([C@H](C)CO)C3=O)cc1, which activation is on record?
Answer: 1.32% (inactive)

Question: For CCNC(=O)C[C@@H]1CC[C@H]2[C@@H](COc3ccc(NC(=O)Nc4ccc(F)cc4)cc3C(=O)N2C)O1, which activation is on record?
Answer: -0.137% (inactive)

Question: For Cc1ccc(S(=O)(=O)N(C)C[C@@H]2Oc3c(NS(=O)(=O)c4ccc(Cl)cc4)cccc3C(=O)N([C@@H](C)CO)C[C@H]2C)cc1, which activation is on record?
Answer: -0.172% (inactive)

Question: With CC1CCC(NC(=O)CCN2C(=O)C3C4C=CC(C4)C3C2=O)CC1 (stereo not given) as the compound, how does the activation read?
Answer: 0.46% (inactive)

Question: For C[C@H]1CN([C@@H](C)CO)C(=O)c2cc(NC(=O)CCC(F)(F)F)ccc2O[C@@H]1CN(C)Cc1ccc(C(F)(F)F)cc1, which activation is on record?
Answer: 0.111% (inactive)

Question: With CCCCSCCCNC(=O)C1CCC(CNS(=O)(=O)c2ccc(NC(C)=O)cc2)CC1 (stereo not given) as the compound, how does the activation read?
Answer: 0.405% (inactive)

Question: With COc1ccc(S(=O)(=O)N(C)C[C@H]2Oc3ccc(NC(=O)Nc4ccc5c(c4)OCO5)cc3CC(=O)N([C@H](C)CO)C[C@@H]2C)cc1 as the compound, how does the activation read?
Answer: 0.086% (inactive)

Question: For O=S(=O)(c1ccc(F)cc1)N1CCCN(c2nccc(C(F)(F)F)n2)CC1, which activation is on record?
Answer: -0.174% (inactive)

Question: With C[C@@H]1CN([C@H](C)CO)C(=O)c2cc(NC(=O)NC3CCCCC3)ccc2O[C@H]1CN(C)S(=O)(=O)c1ccc(Cl)cc1 as the compound, how does the activation read?
Answer: 1.03% (inactive)

Question: With Cc1ccc(S(=O)(=O)N(C)C[C@H]2Oc3ccc(N(C)C)cc3C(=O)N([C@@H](C)CO)C[C@@H]2C)cc1 as the compound, how does the activation read?
Answer: 9.64% (inactive)

Question: Which activation does the source give for C[C@@H]1CN([C@H](C)CO)C(=O)c2cccc(NS(C)(=O)=O)c2O[C@@H]1CN(C)C(=O)Nc1cccc2ccccc12 here?
Answer: -0.133% (inactive)

Question: Which activation does the source give for COc1ccc(S(=O)(=O)N(C)C[C@H]2Oc3ccc(NS(=O)(=O)c4c(C)noc4C)cc3C(=O)N([C@@H](C)CO)C[C@H]2C)cc1 here?
Answer: 0.307% (inactive)

Question: Which activation does the source give for C[C@@H]1CN([C@H](C)CO)C(=O)Cc2cc(NS(C)(=O)=O)ccc2O[C@H]1CN(C)S(=O)(=O)c1cn(C)cn1 here?
Answer: -0.104% (inactive)

Question: For O=C(O)CCC(=O)NCC(=O)c1ccc(F)cc1, which activation is on record?
Answer: -0.239% (inactive)

Question: With COc1ccccc1OCC(=O)Nc1ccc(S(=O)(=O)N2CCN(C)CC2)cc1 as the compound, how does the activation read?
Answer: -0.127% (inactive)

Question: Which activation does the source give for C[C@H]1CN([C@@H](C)CO)C(=O)c2cc(NC(=O)CCN3CCOCC3)ccc2O[C@@H]1CN(C)S(=O)(=O)c1ccc(Cl)cc1 here?
Answer: -0.142% (inactive)

Question: Which activation does the source give for COc1ccc(S(=O)(=O)Nc2ccc3c(c2)C(=O)N([C@H](C)CO)C[C@@H](C)[C@H](CN(C)Cc2ccc(Cl)c(Cl)c2)O3)cc1 here?
Answer: -0.125% (inactive)

Question: With CC(C)NC(=O)N(C)C[C@@H]1Oc2ccc(NC(=O)Cn3cnnn3)cc2CC(=O)N([C@@H](C)CO)C[C@H]1C as the compound, how does the activation read?
Answer: 0.965% (inactive)

Question: For COc1ccc(S(=O)(=O)Nc2cccc3c2O[C@H](CN(C)C(=O)Nc2c(C)noc2C)[C@H](C)CN([C@H](C)CO)C3=O)cc1, which activation is on record?
Answer: -0.109% (inactive)

Question: For COc1ccc(CN2CCN(C(=O)c3ccccc3C(=O)c3ccccc3)CC2)cc1OC, which activation is on record?
Answer: 0.003% (inactive)

Question: Which activation does the source give for CN(CC(=O)Nc1ccccc1Br)C(=O)CNC(=O)C1CCCCC1 here?
Answer: 0.383% (inactive)

Question: For CC(C)NC(=O)Nc1cccc2c1O[C@@H](CN(C)Cc1ccc(C(F)(F)F)cc1)[C@@H](C)CN([C@H](C)CO)C2=O, which activation is on record?
Answer: 0.009% (inactive)

Question: Which activation does the source give for CC(=O)c1ccc(N2CCN(c3ccnc4cc(Cl)ccc34)CC2)cc1 here?
Answer: 1.69% (inactive)

Question: Which activation does the source give for C=CCN(C(=O)c1csnn1)C(C(=O)NC1CCCCC1)c1ccccc1 (stereo not given) here?
Answer: -0.215% (inactive)

Question: With CC(=O)Nc1ccc(S(=O)(=O)NNc2cccc(C)c2)cc1 as the compound, how does the activation read?
Answer: 0.281% (inactive)

Question: With C[C@@H]1CN([C@H](C)CO)C(=O)Cc2cc(NC(=O)CCCCCC(=O)Nc3ccccc3N)ccc2O[C@H]1CN(C)C(=O)Nc1ccc2c(c1)OCO2 as the compound, how does the activation read?
Answer: -0.123% (inactive)

Question: With O=C(O)CC1C(=O)NCCN1Cc1cccs1 (stereo not given) as the compound, how does the activation read?
Answer: -0.112% (inactive)

Question: Which activation does the source give for COc1ccc(NC(=O)N(C)C[C@H]2Oc3ccc(N(C)C)cc3CC(=O)N([C@H](C)CO)C[C@@H]2C)cc1 here?
Answer: -0.19% (inactive)

same assay, conditions: HUVEC E-selectin immunostaining, at 21 µM (top of the series), percent of TNF-alpha response over vehicle

Question: With C[C@H]1CN([C@@H](C)CO)C(=O)c2cccc(NC(=O)Nc3ccc(F)cc3)c2O[C@@H]1CN(C)C(=O)NC1CCCCC1 as the compound, how does the activation read?
Answer: 0.342% (inactive)

Question: For CC(C)NC(=O)Nc1ccc2c(c1)CC(=O)N([C@H](C)CO)C[C@@H](C)[C@@H](CN(C)Cc1ccc(Cl)c(Cl)c1)O2, which activation is on record?
Answer: 0.047% (inactive)

Question: For C[C@H]1CN([C@@H](C)CO)C(=O)Cc2cc(NS(C)(=O)=O)ccc2O[C@@H]1CN(C)Cc1ccncc1, which activation is on record?
Answer: 0.217% (inactive)

Question: Which activation does the source give for COc1ccc(NC(=O)Nc2ccc3c(c2)C(=O)N([C@@H](C)CO)C[C@@H](C)[C@@H](CN(C)S(=O)(=O)c2ccc(F)cc2)O3)cc1 here?
Answer: 0.213% (inactive)

Question: Which activation does the source give for C[C@H]1CN([C@@H](C)CO)C(=O)c2cc(NS(=O)(=O)c3cccs3)ccc2O[C@H]1CN(C)S(C)(=O)=O here?
Answer: 0.402% (inactive)

Question: Which activation does the source give for CN1C(=O)c2cc(NC(=O)C3CCOCC3)ccc2OC[C@@H]2O[C@H](CC(=O)NCc3ccccc3F)CC[C@H]21 here?
Answer: -0.036% (inactive)

Question: For C[C@H]1CN([C@@H](C)CO)C(=O)Cc2cc(NC(=O)Nc3ccc4c(c3)OCO4)ccc2O[C@H]1CN(C)S(=O)(=O)c1cn(C)cn1, which activation is on record?
Answer: -0.009% (inactive)

Question: Which activation does the source give for C[C@@H]1CN([C@H](C)CO)C(=O)c2cccc(NC(=O)C3CC3)c2O[C@H]1CN(C)CC1CC1 here?
Answer: -0.061% (inactive)

Question: For C[C@@H]1CN([C@@H](C)CO)C(=O)c2cc(NC(=O)Nc3ccc4c(c3)OCO4)ccc2O[C@H]1CN(C)Cc1ccc(-c2ccccc2)cc1, which activation is on record?
Answer: 2.77% (inactive)
